Assays:
[1] = test system: peripheral blood mononuclear cells (PBMC), T cells; experiment: ELISpot assay, gamma-interferon release (SFC) after stimulation with a-synuclein epitope pools; format: cell-based, human; settings: for Pool +: IFNg, Pool Stimulated, number of donors with a positive response, Donors tested 1
In short: (§1)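 Ficoll-isolated PBMC from PD patients and age-matched controls were stimulated 22 h at 37 °C with pools of candidate α-syn class I/II and phospho-S129 epitopes, then deconvoluted to single epitopes in responders. IFNγ and IL-5 spot-forming cells were counted colorimetrically, with ≥20 SFC per million cells counted as a response.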

[2] = test system: peripheral blood mononuclear cells (PBMC), T cells; experiment: ELISpot assay, IL-5 release (SFC) after stimulation with a-synuclein epitope pools; format: cell-based, human
In short: as §1

[3] = pool 'Phospho' (phosphorylated peptides)
[4] = Patients Summary, PD patients, of donors tested (peptide)
[5] = Patients Summary, PD patients, single peptide
[6] = Patients Summary, Phospho pool peptides
[7] = Patients Summary, Phospho pool peptides, 10 donors tested
[8] = number of donors positive to the single peptide, second 'Pool Stimulated' section (from r296), 12 donors tested
[9] = peptide + / donors tested (peptide), second 'Pool Stimulated' section (from r296), 12 donors tested
[10] = peptides of pool 'Poshpho', 8 donors tested
[11] = peptides of pool 'Poshpho', 8 donors tested, number of donors positive
[12] = single peptide, second 'Pool Stimulated' section (from r296), 12 donors tested

Substance	Pool + [1]	IFNg Peptide + (donors positive to the peptide) [1, 4]	IFNg Response Frequency [1, 5] [%]	IFNg Total SFC [1, 5] [SFC]	IFNg Peptide + [1, 8]	IFNg Response Frequency [1, 9] [%]	IL-g Peptide + (donors positive to the peptide) [2, 4]	IL-g Response Frequency [2, 5] [%]	IL-g Total SFC [2, 5] [SFC]	IL-g Peptide + [2, 8]	IL-g Response Frequency [2, 9] [%]	IL-g Total SFC [2, 12] [SFC]	IFNg Avg SFC [1, 5] [SFC]	IL-g Avg SFC [2, 5] [SFC]	IFNg Total SFC [1, 12] [SFC]	also measured
3521.0002 (PSEEGYQDY; listed as Homo sapiens)	0	0	0	0	0	0	0	0	0	0	0	0				Pool + [1, 3]: 0; IFNg Avg SFC [1, 6]: 460 SFC; IFNg Response Frequency [1, 6]: 10%; IFNg Total SFC [1, 6]: 460 SFC; IFNg Peptide + (donors positive to the peptide) [1, 7]: 1; IFNg Response Frequency [1, 10]: 0%; IFNg Total SFC [1, 10]: 0 SFC; IFNg Peptide + [1, 11]: 0; IL-g Response Frequency [2, 6]: 0%; IL-g Total SFC [2, 6]: 0 SFC; IL-g Peptide + (donors positive to the peptide) [2, 7]: 0; IL-g Response Frequency [2, 10]: 0%; IL-g Total SFC [2, 10]: 0 SFC; IL-g Peptide + [2, 11]: 0
3521.0006 (VLYVGSKTK; listed as Homo sapiens)	0	5	83	1519			2	33	168				304	84		
3521.0041 (EGILEDMPVD; listed as Homo sapiens)	0	0	0	0	0	0	0	0	0	0	0	0				
3521.0014 (KTVEGAGSI; listed as Homo sapiens)	0	0	0	0	0	0	0	0	0	0	0	0			0	
3521.0076 (PGKTKEGVLYVGSKT; listed as Homo sapiens)	1	2	25	80	1	50	1	13	89	1	50	120	40	89	300	IFNg Avg SFC [1, 12]: 300 SFC; IL-g Avg SFC [2, 12]: 120 SFC
3521.0071 (YVGSKTKEGVVHGVT; listed as Homo sapiens)	0	0	0	0			1	17	35					35		
3521.0025 (EEGAPQEGI; listed as Homo sapiens)	0	1	25	290	0	0	2	50	172	0	0	0	290	86	0	
3521.004 (DNEAYEMPSE; listed as Homo sapiens)	0	0	0	0	0	0	0	0	0	0	0	0				Pool + [1, 3]: 0; IFNg Avg SFC [1, 6]: 364 SFC; IFNg Response Frequency [1, 6]: 20%; IFNg Total SFC [1, 6]: 727 SFC; IFNg Peptide + (donors positive to the peptide) [1, 7]: 2; IFNg Response Frequency [1, 10]: 0%; IFNg Total SFC [1, 10]: 0 SFC; IFNg Peptide + [1, 11]: 0; IL-g Avg SFC [2, 6]: 203 SFC; IL-g Response Frequency [2, 6]: 20%; IL-g Total SFC [2, 6]: 406.3 SFC; IL-g Peptide + (donors positive to the peptide) [2, 7]: 2; IL-g Response Frequency [2, 10]: 0%; IL-g Total SFC [2, 10]: 0 SFC; IL-g Peptide + [2, 11]: 0
3521.0031 (YVGSKTKEGV; listed as Homo sapiens)	0	1	17	153			0	0	0				153			
3521.0057 (NEEGAPQEGI; listed as Homo sapiens)	0	0	0	0	1	50	0	0	0	0	0	0			26.7	IFNg Avg SFC [1, 12]: 26.7 SFC
3521.0005 (AVVTGVTAV; listed as Homo sapiens)	0	0	0	0	0	0	0	0	0	0	0	0			0	
3521.0015 (KTKEQVTNV; listed as Homo sapiens)	0	0	0	0	0	0	0	0	0	0	0	0			0	
